How the values were obtained:
Liver [1] = test: Biodistribution in S180 tumor-bearing mouse liver at 8 to 10 uCi, iv after 120 mins by gamma counting; format: ADME, organism-based; conditions: in vivo, 2 h
Nucleic Acid [2] = test: Ratio of drug level in tumor to brain in S180 tumor-bearing mouse at 8 to 10 uCi, iv at 5 mins by gamma counting; format: ADME, organism-based; conditions: in vivo
Kidney [3] = test: Biodistribution in S180 tumor-bearing mouse kidney at 8 to 10 uCi, iv after 30 mins by gamma counting; format: ADME, organism-based; conditions: in vivo, 0.5 h
Nucleic Acid [4] = test: Ratio of drug level in tumor to blood in S180 tumor-bearing mouse at 8 to 10 uCi, iv at 5 mins by gamma counting; format: ADME, organism-based; conditions: tumour
Brain [5] = test: Biodistribution in S180 tumor-bearing mouse brain at 8 to 10 uCi, iv after 60 mins by gamma counting; format: ADME, organism-based; conditions: in vivo, 1 h
Muscle tissue [6] = test: Biodistribution in S180 tumor-bearing mouse muscle at 8 to 10 uCi, iv after 5 mins by gamma counting; format: ADME, organism-based; conditions: in vivo
Nucleic Acid [7] = test: Ratio of drug level in tumor to muscle in S180 tumor-bearing mouse at 8 to 10 uCi, iv at 5 mins by gamma counting; format: ADME, organism-based; conditions: in vivo
Blood [8] = test: Clearance in S180 tumor-bearing mouse blood at 8 to 10 uCi, iv at 120 mins; format: ADME, organism-based; conditions: in vivo, 2 h
Mus musculus [9] = test: Biodistribution in S180 cells xenografted in mouse tumor at 8 to 10 uCi, iv after 5 mins by gamma counting; format: ADME, organism-based, Neoplasm, CCRF S-180; conditions: in vivo
Muscle tissue [10] = test: Biodistribution in S180 tumor-bearing mouse muscle at 8 to 10 uCi, iv after 120 mins by gamma counting; format: ADME, organism-based; conditions: in vivo, 2 h
Plasma = test: Metabolic stability in mouse plasma after 2 hrs by radio-HPLC analysis; format: ADME, cell-free
Lung [11] = test: Biodistribution in S180 tumor-bearing mouse lung at 8 to 10 uCi, iv after 60 mins by gamma counting; format: ADME, organism-based; conditions: in vivo, 1 h
Nucleic Acid [12] = test: Ratio of drug level in tumor to muscle in S180 tumor-bearing mouse at 8 to 10 uCi, iv at 30 mins by gamma counting; format: ADME, organism-based; conditions: in vivo, 0.5 h
Heart [13] = test: Biodistribution in S180 tumor-bearing mouse heart at 8 to 10 uCi, iv after 30 mins by gamma counting; format: ADME, organism-based; conditions: in vivo, 0.5 h
[14] = Chemical stability in PBS after 2 hrs by radio-HPLC analysis at room temperature; format: physicochemical; conditions: buffer
Mus musculus [15] = test: Biodistribution in S180 cells xenografted in mouse tumor at 8 to 10 uCi, iv after 30 mins by gamma counting; format: ADME, organism-based, Neoplasm, CCRF S-180; conditions: in vivo, 0.5 h
Liver [16] = test: Biodistribution in S180 tumor-bearing mouse liver at 8 to 10 uCi, iv after 60 mins by gamma counting; format: ADME, organism-based; conditions: in vivo, 1 h
Nucleic Acid [17] = test: Ratio of drug level in tumor to brain in S180 tumor-bearing mouse at 8 to 10 uCi, iv at 120 mins by gamma counting; format: ADME, organism-based; conditions: in vivo, 2 h
Nucleic Acid [18] = test: Ratio of drug level in tumor to blood in S180 tumor-bearing mouse at 8 to 10 uCi, iv at 30 mins by gamma counting; format: ADME, organism-based; conditions: tumour, 0.5 h
Stomach [19] = test: Biodistribution in S180 tumor-bearing mouse stomach at 8 to 10 uCi, iv after 5 mins by gamma counting; format: ADME, organism-based; conditions: in vivo
Stomach [20] = test: Biodistribution in S180 tumor-bearing mouse stomach at 8 to 10 uCi, iv after 120 mins by gamma counting; format: ADME, organism-based; conditions: in vivo, 2 h
Muscle tissue [21] = test: Biodistribution in S180 tumor-bearing mouse muscle at 8 to 10 uCi, iv after 30 mins by gamma counting; format: ADME, organism-based; conditions: in vivo, 0.5 h
Nucleic Acid [22] = test: Ratio of drug level in tumor to brain in S180 tumor-bearing mouse at 8 to 10 uCi, iv at 60 mins by gamma counting; format: ADME, organism-based; conditions: in vivo, 1 h
Nucleic Acid [23] = test: Ratio of drug level in tumor to muscle in S180 tumor-bearing mouse at 8 to 10 uCi, iv at 60 mins by gamma counting; format: ADME, organism-based; conditions: in vivo, 1 h
Blood [24] = test: Biodistribution in S180 tumor-bearing mouse blood at 8 to 10 uCi, iv after 120 mins by gamma counting; format: ADME, organism-based; conditions: in vivo, 2 h
Stomach [25] = test: Biodistribution in S180 tumor-bearing mouse stomach at 8 to 10 uCi, iv after 30 mins by gamma counting; format: ADME, organism-based; conditions: in vivo, 0.5 h
Heart [26] = test: Biodistribution in S180 tumor-bearing mouse heart at 8 to 10 uCi, iv after 60 mins by gamma counting; format: ADME, organism-based; conditions: in vivo, 1 h
Mus musculus [27] = test: Biodistribution in S180 cells xenografted in mouse tumor at 8 to 10 uCi, iv after 60 mins by gamma counting; format: ADME, organism-based, Neoplasm, CCRF S-180; conditions: in vivo, 1 h
Mus musculus [28] = test: Biodistribution in S180 cells xenografted in mouse tumor at 8 to 10 uCi, iv after 120 mins by gamma counting; format: ADME, organism-based, Neoplasm, CCRF S-180; conditions: in vivo, 2 h
Kidney [29] = test: Biodistribution in S180 tumor-bearing mouse kidney at 8 to 10 uCi, iv after 60 mins by gamma counting; format: ADME, organism-based; conditions: in vivo, 1 h
Lung [30] = test: Biodistribution in S180 tumor-bearing mouse lungs at 8 to 10 uCi, iv after 5 mins by gamma counting; format: ADME, organism-based; conditions: in vivo
Spleen [31] = test: Biodistribution in S180 tumor-bearing mouse spleen at 8 to 10 uCi, iv after 120 mins by gamma counting; format: ADME, organism-based; conditions: in vivo, 2 h
Nucleic Acid [32] = test: Ratio of drug level in tumor to blood in S180 tumor-bearing mouse at 8 to 10 uCi, iv at 60 mins by gamma counting; format: ADME, organism-based; conditions: tumour, 1 h
Kidney [33] = test: Biodistribution in S180 tumor-bearing mouse kidneys at 8 to 10 uCi, iv after 5 mins by gamma counting; format: ADME, organism-based; conditions: in vivo
Lung [34] = test: Biodistribution in S180 tumor-bearing mouse lung at 8 to 10 uCi, iv after 120 mins by gamma counting; format: ADME, organism-based; conditions: in vivo, 2 h
Nucleic Acid [35] = test: Ratio of drug level in tumor to muscle in S180 tumor-bearing mouse at 8 to 10 uCi, iv at 120 mins by gamma counting; format: ADME, organism-based; conditions: in vivo, 2 h
Lung [36] = test: Biodistribution in S180 tumor-bearing mouse lung at 8 to 10 uCi, iv after 30 mins by gamma counting; format: ADME, organism-based; conditions: in vivo, 0.5 h
Blood [37] = test: Biodistribution in S180 tumor-bearing mouse blood at 8 to 10 uCi, iv after 5 mins by gamma counting; format: ADME, organism-based; conditions: in vivo
Liver [38] = test: Biodistribution in S180 tumor-bearing mouse liver at 8 to 10 uCi, iv after 30 mins by gamma counting; format: ADME, organism-based; conditions: in vivo, 0.5 h
Spleen [39] = test: Biodistribution in S180 tumor-bearing mouse spleen at 8 to 10 uCi, iv after 60 mins by gamma counting; format: ADME, organism-based; conditions: in vivo, 1 h
Kidney [40] = test: Biodistribution in S180 tumor-bearing mouse kidney at 8 to 10 uCi, iv after 120 mins by gamma counting; format: ADME, organism-based; conditions: in vivo, 2 h
Spleen [41] = test: Biodistribution in S180 tumor-bearing mouse spleen at 8 to 10 uCi, iv after 5 mins by gamma counting; format: ADME, organism-based; conditions: in vivo
Brain [42] = test: Biodistribution in S180 tumor-bearing mouse brain at 8 to 10 uCi, iv after 120 mins by gamma counting; format: ADME, organism-based; conditions: in vivo, 2 h
Heart [43] = test: Biodistribution in S180 tumor-bearing mouse heart at 8 to 10 uCi, iv after 120 mins by gamma counting; format: ADME, organism-based; conditions: in vivo, 2 h
Brain [44] = test: Biodistribution in S180 tumor-bearing mouse brain at 8 to 10 uCi, iv after 5 mins by gamma counting; format: ADME, organism-based; conditions: in vivo
Nucleic Acid [45] = test: Ratio of drug level in tumor to blood in S180 tumor-bearing mouse at 8 to 10 uCi, iv at 120 mins by gamma counting; format: ADME, organism-based; conditions: tumour, 2 h
Blood [46] = test: Biodistribution in S180 tumor-bearing mouse blood at 8 to 10 uCi, iv after 30 mins by gamma counting; format: ADME, organism-based; conditions: in vivo, 0.5 h
Heart [47] = test: Biodistribution in S180 tumor-bearing mouse heart at 8 to 10 uCi, iv after 5 mins by gamma counting; format: ADME, organism-based; conditions: in vivo
Liver [48] = test: Biodistribution in S180 tumor-bearing mouse liver at 8 to 10 uCi, iv after 5 mins by gamma counting; format: ADME, organism-based; conditions: in vivo
Blood [49] = test: Biodistribution in S180 tumor-bearing mouse blood at 8 to 10 uCi, iv after 60 mins by gamma counting; format: ADME, organism-based; conditions: in vivo, 1 h
Brain [50] = test: Biodistribution in S180 tumor-bearing mouse brain at 8 to 10 uCi, iv after 30 mins by gamma counting; format: ADME, organism-based; conditions: in vivo, 0.5 h
Spleen [51] = test: Biodistribution in S180 tumor-bearing mouse spleen at 8 to 10 uCi, iv after 30 mins by gamma counting; format: ADME, organism-based; conditions: in vivo, 0.5 h
Muscle tissue [52] = test: Biodistribution in S180 tumor-bearing mouse muscle at 8 to 10 uCi, iv after 60 mins by gamma counting; format: ADME, organism-based; conditions: in vivo, 1 h
Nucleic Acid [53] = test: Ratio of drug level in tumor to brain in S180 tumor-bearing mouse at 8 to 10 uCi, iv at 30 mins by gamma counting; format: ADME, organism-based; conditions: in vivo, 0.5 h
Stomach [54] = test: Biodistribution in S180 tumor-bearing mouse stomach at 8 to 10 uCi, iv after 60 mins by gamma counting; format: ADME, organism-based; conditions: in vivo, 1 h
[55] = n-octanol-PBS partition coefficient, logP of the compound; format: physicochemical
[56] = Chemical stability in PBS after 2 hrs by radio-HPLC analysis at 60 degC; format: physicochemical; conditions: buffer

In the case of `C#Cc1cccc(Nc2ncnc3cc(OC)c(OCC[18F])cc23)c1`, the Drug uptake (Liver [1]) is reported as 3.4 % ID/g, the Ratio (Nucleic Acid [2]) is reported as 0.25 and the Drug uptake (Kidney [3]) is reported as 4.16 % ID/g. For the same molecule, the Ratio (Nucleic Acid [4]) was 0.19, the Drug uptake (Brain [5]) was 0.3 % ID/g and the Drug uptake (Muscle tissue [6]) was 0.74 % ID/g. It also gave a Ratio (Nucleic Acid [7]) of 1.89, a CL (Blood [8]) of 90% and a Drug uptake (Mus musculus [9]) of 1.4 % ID/g. For the same molecule, the Drug uptake (Muscle tissue [10]) was 1.36 % ID/g, the Stability (Plasma) was “Stable” and the Drug uptake (Lung [11]) was 1.88 % ID/g. The Ratio (Nucleic Acid [12]) was 1.91, the Drug uptake (Heart [13]) was 2.85 % ID/g and the Stability [14] was “Stable”. The Drug uptake (Mus musculus [15]) was 3.32 % ID/g, the Drug uptake (Liver [16]) was 4.07 % ID/g and the Ratio (Nucleic Acid [17]) was 1.21. For the same molecule, the Ratio (Nucleic Acid [18]) was 1.08, the Drug uptake (Stomach [19]) was 8.56 % ID/g and the Drug uptake (Stomach [20]) was 1.07 % ID/g. It also gave a Drug uptake (Muscle tissue [21]) of 1.74 % ID/g, a Ratio (Nucleic Acid [22]) of 9.93 and a Ratio (Nucleic Acid [23]) of 3.63. The Drug uptake (Blood [24]) was 0.77 % ID/g, the Drug uptake (Stomach [25]) was 5.94 % ID/g and the Drug uptake (Heart [26]) was 1.99 % ID/g. It also gave a Drug uptake (Mus musculus [27]) of 2.98 % ID/g, a Drug uptake (Mus musculus [28]) of 1.81 % ID/g and a Drug uptake (Kidney [29]) of 2.53 % ID/g. It also gave a Drug uptake (Lung [30]) of 3.6 % ID/g, a Drug uptake (Spleen [31]) of 1.04 % ID/g and a Ratio (Nucleic Acid [32]) of 2.5. It also gave a Drug uptake (Kidney [33]) of 6.35 % ID/g, a Drug uptake (Lung [34]) of 1.62 % ID/g and a Ratio (Nucleic Acid [35]) of 1.33. For the same molecule, the Drug uptake (Lung [36]) was 2.99 % ID/g, the Drug uptake (Blood [37]) was 7.56 % ID/g and the Drug uptake (Liver [38]) was 7.63 % ID/g. It also gave a Drug uptake (Spleen [39]) of 0.77 % ID/g, a Drug uptake (Kidney [40]) of 1.27 % ID/g and a Drug uptake (Spleen [41]) of 0.98 % ID/g. The Drug uptake (Brain [42]) was 1.5 % ID/g, the Drug uptake (Heart [43]) was 1.03 % ID/g and the Drug uptake (Brain [44]) was 5.51 % ID/g. The Ratio (Nucleic Acid [45]) was 2.35, the Drug uptake (Blood [46]) was 3.06 % ID/g and the Drug uptake (Heart [47]) was 8.68 % ID/g. The Drug uptake (Liver [48]) was 8.75 % ID/g, the Drug uptake (Blood [49]) was 1.19 % ID/g and the Drug uptake (Brain [50]) was 2.59 % ID/g. It also gave a Drug uptake (Spleen [51]) of 1.93 % ID/g, a Drug uptake (Muscle tissue [52]) of 0.82 % ID/g and a Ratio (Nucleic Acid [53]) of 1.28. The Drug uptake (Stomach [54]) was 4.14 % ID/g, the logP [55] was 1.64 and the Stability [56] was “Stable”.

Reference: ChEMBL document CHEMBL2057203, “Synthesis and evaluation of novel F-18 labeled 4-aminoquinazoline derivatives: potential PET imaging agents for tumor detection” (Bioorg Med Chem Lett, 2012)
